From US9421281B2, “Target vector with activable imaging function” (Centre National de la Recherche Scientifique, priority 2005, dated 2016)

Experiments:
[1] = Chemical cleavage of the disulfide bridge with 2-mercaptoethanol (absorption and fluorescence); format: physicochemical; settings: for fluorescence after chemical cleavage of the S—S disulfide bridge: imaging function grafted onto RAFT-(cRGD)4, 10 mM PBS, pH 7.2, [2-MCE]=85 mM; for fluorescence of the Cy5 fluorophore(s) before cleavage of the disulfide bridge: imaging function grafted onto RAFT-(cRGD)4, 0.5 or 0.10 μM in 10 mM PBS, pH 7.2
Text: FIG. 5: Absorption and fluorescence of the imaging function Cy5-Cys-S—S-Cys-Cy5 before and after chemical cleavage of the disulfide bridge with 2-mercaptoethanol (2-MCE). A. Absorption spectrum and evolution thereof over time during the addition of 2-MCE. […] C. Evolution over time of the fluorescence of the imaging function during the addition of 2-MCE. […] FIG. 6: Absorption and fluorescence of the imaging function Cy5-Cys-S—S-Cys-QSY21 before and after chemical cleavage of the disulfide bridge with 2-mercaptoethanol (2-MCE). A. Absorption spectra and evolution thereof over time during the addition of 2-MCE. […] C. Evolution over time of the fluorescence of the imaging function during the addition of 2-MCE. […] FIG. 10: Absorption and fluorescence of the imaging function Cy5-Cys-S—S-Cys-Cy5 grafted onto RAFT-(cRGD)4, before and after chemical cleavage of the disulfide bridge with 2-mercaptoethanol (2-MCE). A. Absorption spectrum and evolution thereof over time during the addition of 2-MCE. […] C. Evolution over time of the fluorescence of the imaging function during the addition of 2-MCE. […] FIG. 11: Absorption and fluorescence of the imaging function Cy5-Cys-S—S-Cys-QSY21 grafted onto RAFT-(cRGD)4, before and after chemical cleavage of the disulfide bridge with 2-mercaptoethanol (2-MCE). A. Absorption spectrum and evolution thereof over time during the addition of 2-MCE. […] C. Evolution over time of the fluorescence of the imaging function during the addition of 2-MCE.

[2] = test system: subcutaneous tumor of IGROV-1 type; test: Optical imaging of tumors in the nude mouse (fluorescence reflectance imaging); format: in vivo, nude mice; settings: 10 nmol/mouse i.v.; for evolution of the signal in the tumor over time / signal in the tumor compared with the control probe: IGROV-1 tumor, FIG. 12A; for contrast, ratio of signal between the tumor and the skin: compared with RAFT-(cRGD)4-Cy5-Cys-S—S-cysteine, FIG. 12B
Experimental: FIG. 12: Results of the in vivo injection of the molecular probes RAFT-(cRGD)4-Cy5-Cys-S—S-Cys=Cy5, RAFT-(cRGD)4-Cy5-Cys-S—S-Cys-QSY21, and RAFT-(cRGD)4-Cy5-Cys-S—S-Cys (control) in nude mice, imaged using a fluorescence imaging device (excitation 633 nm; detection λ>670 nm). Intravenous injection of 10 nmol of probe/mouse, in 100 μL of PBS (pH 7.1, 9.5 mM), into the tail of anesthetized mice carrying, on the back, a subcutaneous tumor of IGROV-1 type ([…] injected subcutaneously 2 weeks before imaging). A. Fluorescence intensity measured in the tumor over time. B. Ratio of the fluorescence intensities measured in the tumor and in the skin over time. C. Images obtained 10 minutes and 5 h after injection for the various molecular probes.
The mice used are female nude mice 6 to 8 weeks old, maintained under pathogen-free conditions. The IGROV-1 cells (human ovarian cancer model) are cultured in an RPMI 1640 culture medium containing 1% of glutamine, 10% of FCS, 50 U/ml of penicillin and 50 μg/ml of streptomycin. The cells are maintained at 37° C. under a humid atmosphere with 5% of CO2. 10×10^6 cells are injected subcutaneously into the back of the mice 2 weeks before injection of the molecular vectors RAFT-(cRGD)4-Cy5-Cys-S—S-Cys-Cy5 and RAFT-(cRGD)4-Cy5-Cys-S—S-Cys-QSY21. The latter are injected into the tail intravenously, in 100 μl of PBS (pH 7.1, 9.5 mM), at doses of 10 nmol/mouse.
The anesthetized mice are imaged with a fluorescence reflectance imaging (FRI) device, comprising as excitation source a crown of LEDs equipped with interference filters, emitting at 633 nm (illumination power 50 μW·cm^−2). The images are collected after filtration with an RG665 colored filter of optical density>5 at the excitation wavelength by means of a CCD camera (Orca BTL, Hamamatsu), with an exposure time of 100 ms. The signals are quantified using image processing software.

[3] = test system: Hekβ3 cells; test: Penetration into the cells, laser scanning confocal microscopy; format: cell-based; settings: 1 to 2 hours of incubation
Experimental: FIG. 13: Penetration of the labels into the cells, imaged by laser scanning confocal microscopy. Hekβ3 cells after 1 to 2 hours incubation in the presence of a negative control RAFT(4cRAD)-Cy5 (column 1), or in the presence of RAFT(4cRGD)-Cy5 (column 2), RAFT(4cRGD)-Cy5-Cys-S—S-Cys-Cy5 (column 3), or RAFT(4cRGD)-Cy5-Cys-S—S-Cys-quencher (column 4). The penetration into the cells of the probes RAFT-(cRGD)4-Cy5, RAFT-(cRGD)4-Cy5-Cys-S—S-Cys-Cy5 and RAFT-(cRGD)4-Cy5-Cys-S—S-Cys-QSY21 was observed on Hekβ3 cells, after 1 to 2 hours of incubation.

Substance | fluorescence after chemical cleavage of the S—S disulfide bridge [1] | fluorescence of the Cy5 fluorophore(s) before cleavage of the disulfide bridge [1] | evolution of the signal in the tumor over time [2] | signal in the tumor compared with the control probe [2] | contrast, ratio of signal between the tumor and the skin [2] | penetration into the cells (location of fluorescence) [3] | penetration into the cells (location of fluorescence) ([3]; listed as RAFT-Cy5-Cys-S—S-Cys-Q)
cysteine(Cy5)-S—S-cysteine(QSY21)RAFTc[RGDfK-]4 [RAFT-(cRGD)4-Cy5-Cys-S—S-Cys-QSY21] | completely released | initially self-quenched | gradual appearance of the signal in the tumor | more signal in the tumor | increases | clear fluorescence inside the cells | penetrates into the cells better
cysteine(Cy5)-S—S-cysteineRAFTc[RGDfK-]4 [RAFT-(cRGD)4-Cy5-Cys-S—S-cysteine, reference compound] |  |  | decreases very rapidly over time |  |  |  | 
cysteine(Cy5)-S—S-cysteine(Cy5)RAFTc[RGDfK-]4 [RAFT-(cRGD)4-Cy5-Cys-S—S-Cys-Cy5] | completely released | initially self-quenched | gradual appearance of the signal in the tumor | more signal in the tumor | increases | does not enter well | 
